Broadly, the LD50 is the dose at which mortality reaches 50%. Higher therefore signals lower toxicity.

Consider 1 compound from patent publication US4661484A, “Pyridazinone derivatives and salts thereof as cardiac stimulants” (Mitsubishi Chemical Industries Limited, priority 1984, dated 1987).

The subject of series [1] is myocardial contraction in anesthetized dogs. Kind of series: Effects on myocardial contraction in anesthetized dogs. The format is in vivo. The conditions noted are these: anesthetized dog. The protocol: 3. Effects on myocardial contraction in anesthetized dogs
Male and female mongrel dogs with body weight of 8-15 kg were used. A dog was anesthetized by intraveneous injection of 30 mg/kg of sodium pentobarbital and practiced artificial respiration. The dog was thoractomized between fourth and fifth costa which was cut off. The pericardium was incised to expose heart. Blood flow through the aorta, which was measured with an electromagnetic blood flowmeter whose probe was attached to the ascending aorta, was used as an approximate index of cardiac output (CO). Left ventricular pressure (LVP) was measured with a Miller Catheter-tip pressure transducer and the first derivative of the LVP (dP/dt) was measured with a differentiater. Contraction of right ventricular muscle (Cont) was determined with a strain-gauge attached to the wall. Systemic blood pressure was measured from the left femoral artery. Heart rate was measured with electrocardiogram (lead II) and a cardiotachometer. The compound dissolved in a solvent was administered intravenously from a left femoral vein.

Series [2] relates to left atrium of the guinea pig. Kind of series: Effect on contraction of an isolated left atrium of the guinea pig. The conditions noted are these: Cavia porcellus; dosage 10^-5 g/ml; read-out: Contraction of left atrium of guinea pig, increase. The protocol:
2. Effect on contraction of an isolated left atrium of the guinea pig
A left atrium was isolated from a male guinea pig with 200-300 g of body weight soon after striking on the back of its head. The mitral orifice was fixed to the bottom of an organ bath filled with 30 ml of Krebs-Henseleit solution maintained at 35° C. A gas mixture comprising 95% of O2 and 5% of CO2 was passed through the Krebs-Henseleit solution in the organ bath. Isometric tension was measured by connecting a left auricle of heart and a transducer by a yarn. A resting tension of 0.5 g was given to the atrium, which was then electrically driven with square pulses with duration of 1 msec and voltage of 1.5 times as much as threshold in the rate of 2 Hz via dipolar platinum electrodes.
After stabilizing the atrium for 30 minutes from its preparation, the compound dissolved in a solvent was added to the organ bath to measure its effect.

A short description of series [3]: Acute toxicity (LD50), intravenous, male mice. The conditions noted are these: mouse, in vivo, i.v. Here is the method: Acute toxicity (LD50) for intravenous administration in male mice was determined by the method of […] and Wilcoxon (referred to Journal of Pharmacology and Experimental Therapeutics, 96, 99-113, 1949).
For another series, the system named is papillary muscle of dog. The series can be described thus: Effect on contraction of an isolated and cross-circulated papillary muscle preparation of the dog. The conditions noted are these: Canis lupus familiaris; dosage 30 μg i.a.; read-out: Contraction of papillary muscle of dog, increase. The protocol:
1. Effect on contraction of an isolated and cross-circulated papillary muscle preparation of the dog
An isolated and cross-circulated papillary muscle preparation of the dog was prepared by Endo and Hashimoto's method (referred to American Journal of Physiology, 218, 1459-1463, 1970). The effect of the compound was measured by closely intraarterially injecting the compound dissolved in a solvent to the papillary muscle for the purpose of recording its effect on contraction of papillary muscle.

As for `O=c1ccc(-c2ccc(Nc3ccncc3)cc2)n[nH]1` [Example I, 6-[4-(4'-pyridyl)aminophenyl]-3(2H)-pyridazinone], in series [1] (30 μg/kg i.v.), the “CO increase (cardiac output)” value is 13%, the “Cont increase (contraction of right ventricular muscle)” value came out at 31% and the dP/dt max increase is reported as 64%. For the same compound, in series [1] (100 μg/kg i.v.), the “CO increase (cardiac output)” value was found to be 11%, the “Cont increase (contraction of right ventricular muscle)” value is recorded as 39% and the dP/dt max increase is 108%. The activation at 10 µg/mL in series [2] is 163%. Further, the LD50 in series [3] was 103 mg/kg. In the series on papillary muscle of dog, the activation at 0.03 mg came to 12.4%.
